This experiment deals with lysine deficient rats. The experiment in a line: Effect of a medicine on abnormal bowel movement of lysine deficient rats (carmine dye feces count). In kind it is in vivo, rats (male Wistar). The settings on record: oral administration with carmine dye; rats fed low lysine diet 7 days, fasted one day; Dunnett's method.

Text: The low lysine diet (n=10) or lysine-containing diet (normal diet; n=10) was given to rats (Charles River Japan, Inc, male Wistar rats, 5W). The rats fed for 7 days were used. Each rat was fasted one day before the start of the experiments (on the 6th day after beginning the feeding of the experimental diet) and then a medicine and carmine dye were orally administered. The number of the carmine colorant-containing feces was cumulatively counted sequentially. The statistical analysis was conducted according to Dunnett's method.

On to `Cc1[nH]cnc1CN1CCc2c(c3ccccc3n2C)C1=O` [Alosetron], for which the “acceleration of the excretion of carmine-containing feces” value is “significantly control the acceleration of the excretion of the feces”.

For the origin of these results see patent US20050076398A1, “Animal model of chronic stress diseases and method for producing the same” (Ajinomoto Co., Inc., priority 2002, published 2005).
